Tests used:
[1] = Absorbability after oral administration; format: in vivo; details: orally administered to a subject
[2] = Solubility of compound (1) in aqueous solutions; format: physicochemical

absorbability [1]: excellent absorbability
solubility ([2]; neutral pH aqueous solution (e.g., neutral buffer solution)): solubility decreases
solubility ([2]; strong acidic aqueous solution): high solubility
Structure (SMILES): CN1CCc2nc(C(=O)N[C@@H]3C[C@@H](C(=O)N(C)C)CC[C@@H]3NC(=O)C(=O)Nc3ccc(Cl)cn3)sc2C1 [compound (1), N^1-(5-chloropyridin-2-yl)-N^2-(4-[(dimethylamino)carbonyl]-2-{[(5-methyl-4,5,6,7-tetrahydrothiazolo[5,4-c]pyridin-2-yl)carbonyl]amino}cyclohexyl)ethanediamide]

— patent US9149532B2, “Pharmaceutical composition” (DAIICHI SANKYO COMPANY, LIMITED, priority 2007, dated 2015)
